Our source for the relative viability values is the supplement of paper PMC10307832.

Common to all, as to assay: relative viability (nuclei count vs DMSO), 5 days (fraction); higher = more cells survive
Compound in the assay “Decitabine + Trametinib”: Nc1ncn([C@H]2C[C@H](O)[C@@H](CO)O2)c(=O)n1 [Decitabine] + CC(=O)Nc1cccc(-n2c(=O)n(C3CC3)c(=O)c3c(Nc4ccc(I)cc4F)n(C)c(=O)c(C)c32)c1 [Trametinib] (partner 0.02 µM)
In short, it runs like this:
(§1)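 Lung cancer cell lines were seeded in 1536-well plates and dosed by pin tool the next day, with either a single drug or a fixed anchor-drug dose combined with five library-drug doses (not always all listed) spaced in √10 steps. Five days later, one step fixed the cells and stained their nuclei (final 0.05% Triton X-100, 1% formaldehyde, 1 ug/ml Hoechst), and nuclei were counted on 4× images. Relative viability is the nuclei count in treated wells divided by the count in vehicle wells, and each value is the median of duplicate plates.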

Compound in the assay “Decitabine + Pemetrexed”: Nc1ncn([C@H]2C[C@H](O)[C@@H](CO)O2)c(=O)n1 [Decitabine] + Nc1nc2[nH]cc(CCc3ccc(C(=O)N[C@@H](CCC(=O)O)C(=O)O)cc3)c2c(=O)[nH]1 [Pemetrexed] (partner 0.2 µM)
The method, boiled down:
as §1

Compound in assay [1]: O=C(C[C@H]1NCCC[C@@H]1O)Cn1cnc2cc(Br)c(Cl)cc2c1=O (racemic) [Halofuginone] + O=C(CCCCCCC(=O)Nc1ccccc1)NO [Vorinostat] (partner 1 µM)
In short, it runs like this:
as §1

Compound in the assay “Decitabine + Luminespib”: Nc1ncn([C@H]2C[C@H](O)[C@@H](CO)O2)c(=O)n1 [Decitabine] + CCNC(=O)c1noc(-c2cc(C(C)C)c(O)cc2O)c1-c1ccc(CN2CCOCC2)cc1 [Luminespib] (partner 0.01 µM)
In short, it runs like this: as §1

As for UMC-11, the relative viability with Decitabine + Trametinib (first compound 0.04 µM) is 0.697; with Decitabine + Trametinib (first compound 0.1265 µM) it was 0.609; with Decitabine + Trametinib (first compound 0.4 µM) it was 0.4; in the assay with Decitabine + Trametinib (first compound 1.265 µM), 0.331; with Decitabine + Trametinib (first compound 4 µM), 0.367; with Decitabine + Pemetrexed (first compound 0.04 µM), 0.691. Moreover, the relative viability is 0.563 with Decitabine + Pemetrexed (first compound 0.1265 µM); 0.406 with Decitabine + Pemetrexed (first compound 0.4 µM); 0.358 with Decitabine + Pemetrexed (first compound 1.265 µM); 0.351 with Decitabine + Pemetrexed (first compound 4 µM); 0.428 in assay [1] (first compound 0.001 µM); 0.381 in assay [1] (first compound 0.003162 µM). In addition, the relative viability in assay [1] (first compound 0.01 µM) turned out to be 0.348; in assay [1] (first compound 0.03162 µM), 0.334; in assay [1] (first compound 0.1 µM), 0.205; in the assay with Decitabine + Luminespib (first compound 0.04 µM), 0.935; with Decitabine + Luminespib (first compound 0.1265 µM), 0.773; in the assay with Decitabine + Luminespib (first compound 0.4 µM), 0.559. For the same cell line, the relative viability stood at 0.382 in the assay with Decitabine + Luminespib (first compound 1.265 µM) and 0.372 with Decitabine + Luminespib (first compound 4 µM).
